Four compounds from patent publication US20040067218A1, “Extramedullary adipose tissue cells and use thereof for regenerating hematopoietic and muscular tissue” (priority 2001, published 2004) can be followed below.

Each structure is given as a SMILES string.

The test system of one test is β-adrenergic receptors. Put plainly: Spontaneous contractile activity of cardiomyocytes differentiated from vascular stroma cells (β-adrenergic agents). As to conditions: untreated = 100%. In kind it is cell-based, mouse. As to the method: (§1) Cells of the vascular stroma, isolated as described in Example 1.2, are cultured in the methylcellulose-based semi-solid medium as defined above (Example 1.8).
(§2) The cardiomyocytes are also detected by their spontaneous contractile activity in the presence or absence of agonists or antagonists of muscarinic acetylcholine receptors (carbamylcholine and atropine, respectively) or β-adrenergic receptors (isoproterenol and propranolol, respectively).
(§3) More precisely, 1 ml of DMEM medium containing carbamylcholine (2 μM), atropine (10 μM), isoproterenol (10 μM) or propranolol (40 μM) is added to the methyl-cellulose-based medium. After incubation for 5 min, necessary for diffusion of the molecules, the excess buffer is removed and the cell contractions are counted under the microscope for one minute.
(§4) The values correspond to the mean of 3 independent measurements.

For test [1], the system named is muscarinic acetylcholine receptors. The experiment in a line: Spontaneous contractile activity of cardiomyocytes differentiated from vascular stroma cells (muscarinic agents). It is filed as cell-based, mouse. Conditions: untreated = 100%. As to the method:
as §1, §2, §3, §4

Take `CC(C)NCC(O)COc1cccc2ccccc12` (stereo not shown) [Propranolol, propranolol]: the Contractions in the test on β-adrenergic receptors (propranolol (40 μM) added with isoproterenol (10 μM), mean of 3) came to 100%.

With `CN1[C@@H]2CC[C@H]1C[C@@H](OC(=O)C(CO)c1ccccc1)C2` (stereo partly shown) [Atropine, atropine], the Contractions in test [1] (atropine (10 μM) added with carbamylcholine (2 μM), mean of 3) is given as 106%. In the test on β-adrenergic receptors (isoproterenol (10 μM) alone, mean of 3 independent measurements), `CC(C)NCC(O)c1ccc(O)c(O)c1` (stereo not shown) [Isoproterenol, isoproterenol] returned a Contractions of 160%. Regarding `C[N+](C)(C)CCOC(N)=O.[Cl-]` [Carbamylcholine, carbamylcholine], the Contractions in test [1] (carbamylcholine (2 μM) alone, mean of 3 independent measurements) amounted to 53%.
